Experimental findings from US8426677B2, “Method of controlling plant growth and architecture by controlling expression of gibberellin 2-oxidase” (Academia Sinica, priority 2008, dated 2013) are described below.

In series [1] the test system is GA2ox6ACT mutant and wild type rice seeds/seedlings. The series can be described thus: Germination and seedling growth of rice on MS agar medium with or without GA3. It is filed as in vivo, Oryza sativa. Here is the method: To determine whether the dwarfism of rice mutants overexpressing GA2ox was a result of a reduction of bio-active GAs, GA2ox6ACT mutant seeds were germinated on MS agar medium with or without supplementation with 5 μM GA3.
The rice cultivar Oryza sativa L. cv Tainung 67 was used as in this study. Four T-DNA tagged rice GA2ox mutant lines were obtained from the Taiwan Rice Insertional Mutagenesis database (TRIM database, http://trim.sinica.edu.tw/). T1 mutant seeds were surface sterilized in 2.5% NaClO for 18 minutes, washed well with sterile water, placed on MS agar medium (Murashige and Skoog Basal Medium, Sigma), and incubated at 28° C. with continuous light for 15˜20 days. Wild type rice was grown under the same conditions. Plants were transplanted to pot soil and grown in a net-house during the growing season.

For series [2], the system named is Ubi::GA2ox6 transgenic rice and wild type. The series can be described thus: GA3 treatment of wild type and Ubi::GA2ox6 transgenic rice grown in pot soil (plant height). It is filed as in vivo, Oryza sativa. The note with it: 10 μM GA3 at a 12-day interval for 5 weeks.
Series [3] deals with GA2ox6ACT mutant seedlings. Nature of the series: Tiller and adventitious root development of seedlings grown in media with or without GA3. Format: in vivo, Oryza sativa. The note with it: 5 μM GA3 in medium. The source says:
(§1) Additionally, the inhibition of tillering by GA3 was independent of rice growth stage (see FIG. 15B). […] Both GA-treated GA2ox6ACT mutant and wild-type plants produced 2-3 times fewer tillers than mutant and wild-type plants without GA treatment (FIG. 15B).

For series [4], the system named is wild type and GA2ox6ACT plants. Nature of the series: Tiller number of 1-month-old plants in pot soil sprayed with GA3. It is filed as in vivo, Oryza sativa. The note with it: 10 μM GA3 spray once every 7 days, 3 sprays, GA2ox6ACT mutant and wild type.
Excerpt: as §1

A further series deals with OSH1 mRNA. Nature of the series: RT-PCR of OSH1 mRNA in embryos containing tiller buds. Format: in vivo, Oryza sativa. The note with it: 12 DAI. The procedure:
(§2) To determine whether GA deficiency induced expression of OSH1 and TB1 that in turn promotes tillering and root development, GA2ox5Δ335-341ACT, GA2ox6ACT and wild type seedlings were grown in media with or without 5 μM GA3 after germination. Rice embryos containing tiller buds were collected at 12 DAI. […] It is not clear why the accumulation of OSH1 and TB1 mRNAs in the wild type was enhanced by GA3 (FIG. 14A), nevertheless, its stem became slenderer and adventitious root growth was inhibited similar as mutants (FIG. 14B).
(§3) Total RNA was purified from rice tissues using a Trizol reagent (Invitrogen). Total RNA (15 μg aliquots) was treated with 1 unit of RNase-free DNase I (Promega) in a 20 μL volume and incubated at 37° C. for 30 min. The RNA sample was then incubated at 65° C. for 10 min and placed on ice. cDNA synthesis was performed in a 20 μL mixture containing 1× reverse transcription reaction buffer (Invitrogen), 4.5 μg of purified RNA, 400 ng oligo (dT)16 primer, 5 mM DTT, 0.5 mM each dNTP, 40 units RNasin (Promega), and 200 units Superscript® III reverse transcriptase (Invitrogen). The reaction was carried out at room temperature (25° C.) for 10 min, transferred to 50° C. for 1 h, and terminated by heating at 72° C. for 15 min. The sample, which served as a cDNA stock for PCR analysis, was then stored at −70° C. […]

The next series has as its system TB1 mRNA. Nature of the series: RT-PCR of TB1 mRNA in embryos containing tiller buds. Format: in vivo, Oryza sativa. The note with it: 12 DAI. The procedure:
as §2, §3

A further series has as its system GA2ox6 mRNA. The series can be described thus: RT-PCR of GA2ox6 mRNA in leaves and roots of seedlings. Format: in vivo, Oryza sativa. The note with it: GA3 treatment, wild type and GA2ox6ACT mutant seedlings at 18 DAI. The procedure:
Total RNA was purified from rice tissues using a Trizol reagent (Invitrogen). Total RNA (15 μg aliquots) was treated with 1 unit of RNase-free DNase I (Promega) in a 20 μL volume and incubated at 37° C. for 30 min. The RNA sample was then incubated at 65° C. for 10 min and placed on ice. cDNA synthesis was performed in a 20 μL mixture containing 1× reverse transcription reaction buffer (Invitrogen), 4.5 μg of purified RNA, 400 ng oligo (dT)16 primer, 5 mM DTT, 0.5 mM each dNTP, 40 units RNasin (Promega), and 200 units Superscript® III reverse transcriptase (Invitrogen). The reaction was carried out at room temperature (25° C.) for 10 min, transferred to 50° C. for 1 h, and terminated by heating at 72° C. for 15 min. The sample, which served as a cDNA stock for PCR analysis, was then stored at −70° C.
RT-PCR analysis was carried out in a 15 μl, solution containing 0.9 μL cDNA, 1×PCR buffer (Promega), 1.5 mM MgCl2, 0.2 mM each dNTP, 0.3 μmole each primer, 3% DMSO, and 0.6 units of Taq DNA polymerase (Promega). For GA2ox2, GA2ox7, and GA2ox8 that had very low mRNA abundance, RT-PCR analysis was carried out using KOD Hot Start DNA Polymerase (Novagen). Each 15 μL of reaction solution contained 0.9 μL cDNA, 1×PCR buffer (Novagen), 1.0 mM MgSO4, 0.2 mM each dNTP, 0.3 μmole each primer, 3% DMSO, and 1 unit of KOD Hot Start DNA Polymerase (Novagen). […]

Series [5] can be described thus: In vitro enzyme activity of recombinant GST fusion GA2ox5 and GA2ox6 expressed in E. coli. Format: biochemical, Oryza sativa. The note with it: partially purified glutathione S-transferase fusion protein. The source says:
GA53, a precursor of GA1, could be converted to GA97 in vitro by the Arabidopsis class C20 GA2ox through 2β-hydroxylation (Schomburg et al., 2003). The in vitro activity of rice GA2ox5 and GA2ox6 were also investigated by overexpression as fusion proteins with glutathione S-transferase in E. coli. Fusion proteins were partially purified and their enzyme activity analyzed.
Full length cDNAs of GA2ox5 and GA2ox6 in the pGEM®-T Easy cloning vector were digested with BamHI and subcloned into the same site in pGEX-5X expression vector (Amersham Biosciences). The resulting expression vectors were used to transform E. coli strain BL21-CodonPlus® (DE3) RIPL (Stratagen). A volume of 5 mL transformants pre-cultured overnight in Luria-Bertani broth (LB broth, DIFCO) was transferred to 500 mL of LB broth with 100 mgL^−1 ampicillin and incubated at 37° C. until cell density reached an OD600 around 0.6˜0.8. Isopropyl-β-D-thiogalactopyranoside (IPTG) was added to the bacteria culture to a final concentration of 0.3 mM and incubated at 28° C. for another 3 hours. Bacteria were pelleted by centrifuge and harvested, resuspended in BugBuster® Protein Extraction Reagent (Novagen) at room temperature for 10˜20 minutes, and centrifuged at […] for 30 min. The supernatant protein extracts were partially purified through GST-Bind resin (Novagen), and the purified protein extracts were stored at −80° C. […]

Where [6] appears, read: 5 μM GA3, GA2ox5Δ335-341ACT and GA2ox6ACT mutants.

Take `C=C1C[C@]23C[C@@]1(O)CC[C@H]2[C@@]12C=C[C@H](O)[C@@](C)(C(=O)O1)[C@H]2[C@@H]3C(=O)O` [GA3]: in series [1] (5 μM GA3, 18 DAI), the “Root lengths of wild type and GA2ox6ACT mutant seedlings” value is recorded as “effectively enhanced”. The “Height of dwarf GA2ox6ACT mutant seedlings, recovery relative to the wild type” value in series [1] (5 μM GA3, GA2ox6ACT mutant, 18-day-old seedlings) is “up to 84 % of the wild type”. In addition, the “Plant height of 18-day-old wild-type seedlings” value in series [1] (5 μM GA3, wild type, 18 DAI) is “only slightly enhanced”. Besides, the “Germination of GA2ox6ACT seeds” value in series [1] (5 μM GA3 in MS agar medium) was “promoted germination”. Also, in series [2], the “Final height of Ubi::GA2ox6 transgenic plants relative to the wild type” value is recorded as 63 % of the WT. Besides, the “Height of wild type plant” value in series [2] (wild type) is “not altered”. The “Root system compared to the mutant without GA treatment” value in series [3] (GA2ox6ACT mutant) was “significantly reduced”. The “Time at which the first tiller developed” value in series [3] (GA2ox6ACT mutant (9 DAI without GA treatment)) is recorded as 16 DAI. The “Tillers produced compared to plants without GA treatment” value in series [4] is reported as 2-3 times fewer. The “OSH1 mRNA level in mutants” value with OSH1 mRNA (setting [6]) was “significantly reduced”. In the series on OSH1 mRNA (5 μM GA3, wild type), the “OSH1 mRNA accumulation in the wild type” value was “enhanced”. The “TB1 mRNA level in mutants” value in the series on TB1 mRNA (setting [6]) is reported as “significantly reduced”. Further, the “TB1 mRNA accumulation in the wild type” value in the series on TB1 mRNA (5 μM GA3, wild type) is “enhanced”. Moreover, the “GA2ox6 mRNA accumulation in leaves and roots” value in the series with GA2ox6 mRNA is on record as “unaffected”.

B1: GA2ox5: rice class C20 gibberellin 2-oxidase (SEQ ID NO:2), expressed in E. coli and partially purified (protein, listed as Oryza sativa)
chain: MEEHDYDSNSNPPLMSTYKHLFVEQHRLDMDMGAIDVDECELPVIDLAGLMEAEQVCRADMVRAASEWGFFQVTNHGVPQALLRELHDAQVAVFRRPFQEKVTERLLGFSPESYRWGTPTAKCLEQLSWSEAYHIPMTTPRPSTSIRARAVIEEVSRAMYELAQKLAEILMRGLPGAGEGETMVTTREETCFLRLNRYPPCAMAMGGFGLCPHTDSDLLTIVHQQQDTVGGLQLLKGGRWVAVKPSPSTLIVNVGDLLQAWSNDVYKSVEHRVMANATLERFSMAFFLCPSYHTLIIPSSSHVHDDDAHYRSFTFGEYRKQIMEDVRSTGRKIGLHRFRTR
Turning to B1, the “Conversion of GA53 to GA97 (2β-hydroxylation)” value in series [5] is on record as “could convert GA53 to GA97”.

B2: GA2ox6: rice class C20 gibberellin 2-oxidase (SEQ ID NO:4), expressed in E. coli and partially purified (protein, listed as Oryza sativa)
chain: MPAFADIAIDPPLADSYRALALLRRDRDGGIAPPAVQMVGSGGAVLERDLPMVDLERLTRGGAGERKACAGAMARAASEWGFFQLTNHGVGRELMEEMRREQARLFRLPFETKEKAGLLNGSYRWGNPTATSLRHLSWSEAFHVPLASISGADCDFGDLTSLRGVMQEVAEAMSRVANTVAAALAEELTGRGGGGASAAPWFPAGCDETTCFLRLNRYPACPFAADTFGLVPHTDSDFLTVLCQDQVGGLHLMKDSRWVAVRPRPDALVVNIGDLFQAWSNNRYKSVEHKVVANAKTDRLSVAYFLCPSYDSLVGTCGEPSPYRAFTFGEYRKKVQEDVRTTGKKIGLPNFFKHSSVQ
Regarding B2, the “Conversion of GA53 to GA97 (2β-hydroxylation)” value in series [5] is listed as “could convert GA53 to GA97”.
